Reference: ChEMBL document CHEMBL6083290, “Proline Analogues in Drug Design: Current Trends and Future Prospects” (J Med Chem, 2024)
Starred links: 1 amine or outer side, 2 acyl side, 3 side chain; linkers in the order of their positions; H or OH if unused. Non-standard residues stand in square brackets, D forms with d. Residues, ends and D or L forms follow the SMILES beside them. ξ: configuration not given here. *: point of attachment. X3 = CC(C)C[C@H](N[*:1])[C@H](O)C[C@H](C(=O)[*:2])C(C)C; X2 = O=C(C1[C@@H](F)[C@@H](O)CN1[*:1])[*:2]; X1 = O=C(C1[C@H](F)[C@@H](O)CN1[*:1])[*:2]; ξPro(4R-OH) = O=C(O)C1C[C@@H](O)CN1; NHCH2(2-pyridyl) = c1ccc(CN*)nc1; αMeP = C[C@@]1(C(=O)O)CCCN1; Boc = CC(C)(C)OC(=O)*

Columns and labels:
[1] = system: SARS-CoV-2; experiment: microbe, parasite or virus in culture; conditions: Severe acute respiratory syndrome coronavirus 2, 2019-nCoV Muc-IMB-1, Vero C1008, 48 h
Description: Antiviral activity against SARS-CoV-2 2019-nCoV Muc-IMB-1 infected in Vero E6 cells assessed as reduction in viral replication measured after 48 hrs by qRT-PCR analysis

[2] = in vitro; conditions: rat, plasma
[3] = Metabolic stability in rat liver microsomes assessed as half life
[4] = molecular target: T1, Replicase polyprotein 1ab (Severe acute respiratory syndrome coronavirus 2, UniProt P0DTD1)
Description: Inhibition of SARS-CoV-2 main protease

[5] = molecular target: Endothelial PAS domain-containing protein 1 (Homo sapiens, UniProt Q99814); experiment: Binding affinity to HIF-2alpha (unknown origin) assessed as dissociation constant
[6] = molecular target: T1, Replicase polyprotein 1ab; remark: listed apart in the source
Description: Inhibition of SARS-CoV-2 main protease extracted from Escherichia coli BL21 (DE3) cells

[7] = Lipophilicity, logP of compound; conditions: octanol/water
[8] = molecular target: T2, Renin (Homo sapiens, UniProt P00797); experiment: Inhibition of renin (unknown origin) using Arg-Glu(EDANS)-lle-His-Pro-Phe-His-Leu-Val-lle-His-Thr-Lys(dabcyl)-Arg as substrate incubated for 10 mins by fluorescence based assay
T2 sequence (P00797 whole entry): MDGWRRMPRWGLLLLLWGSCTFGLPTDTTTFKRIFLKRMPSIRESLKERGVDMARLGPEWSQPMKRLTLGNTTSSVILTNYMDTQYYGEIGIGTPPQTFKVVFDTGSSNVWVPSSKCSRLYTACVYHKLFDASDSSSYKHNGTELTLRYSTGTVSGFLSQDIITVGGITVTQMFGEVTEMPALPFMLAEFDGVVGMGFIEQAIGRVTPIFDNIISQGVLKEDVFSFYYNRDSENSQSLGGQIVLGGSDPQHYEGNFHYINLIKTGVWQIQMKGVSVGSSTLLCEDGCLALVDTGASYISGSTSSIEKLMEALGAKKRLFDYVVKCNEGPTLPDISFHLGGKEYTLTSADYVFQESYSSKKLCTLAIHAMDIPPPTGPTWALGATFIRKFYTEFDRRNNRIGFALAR

[9] = system: MCF7; experiment: Antiproliferative activity against human MCF7 cells assessed as reduction in cell viability incubated for 48 hrs by MTT assay; conditions: MCF7, 48 h
[10] = system: L-363; experiment: Antiproliferative activity against human L-363 cells assessed as reduction in cell growth incubated for 72 hrs by MTT assay; conditions: L-363, 72 h
[11] = molecular target: Phosphatidylinositol 4,5-bisphosphate 3-kinase catalytic subunit alpha isoform (Homo sapiens, UniProt P42336); experiment: Inhibition of PI3Kalpha (unknown origin) using PIP2 as substrate measured after 30 mins by TR-FRET assay
[12] = Inhibition of Glutamate receptor (unknown origin)

Chain of Endothelial PAS domain-containing protein 1 (Q99814 whole entry, the tested form may be a part): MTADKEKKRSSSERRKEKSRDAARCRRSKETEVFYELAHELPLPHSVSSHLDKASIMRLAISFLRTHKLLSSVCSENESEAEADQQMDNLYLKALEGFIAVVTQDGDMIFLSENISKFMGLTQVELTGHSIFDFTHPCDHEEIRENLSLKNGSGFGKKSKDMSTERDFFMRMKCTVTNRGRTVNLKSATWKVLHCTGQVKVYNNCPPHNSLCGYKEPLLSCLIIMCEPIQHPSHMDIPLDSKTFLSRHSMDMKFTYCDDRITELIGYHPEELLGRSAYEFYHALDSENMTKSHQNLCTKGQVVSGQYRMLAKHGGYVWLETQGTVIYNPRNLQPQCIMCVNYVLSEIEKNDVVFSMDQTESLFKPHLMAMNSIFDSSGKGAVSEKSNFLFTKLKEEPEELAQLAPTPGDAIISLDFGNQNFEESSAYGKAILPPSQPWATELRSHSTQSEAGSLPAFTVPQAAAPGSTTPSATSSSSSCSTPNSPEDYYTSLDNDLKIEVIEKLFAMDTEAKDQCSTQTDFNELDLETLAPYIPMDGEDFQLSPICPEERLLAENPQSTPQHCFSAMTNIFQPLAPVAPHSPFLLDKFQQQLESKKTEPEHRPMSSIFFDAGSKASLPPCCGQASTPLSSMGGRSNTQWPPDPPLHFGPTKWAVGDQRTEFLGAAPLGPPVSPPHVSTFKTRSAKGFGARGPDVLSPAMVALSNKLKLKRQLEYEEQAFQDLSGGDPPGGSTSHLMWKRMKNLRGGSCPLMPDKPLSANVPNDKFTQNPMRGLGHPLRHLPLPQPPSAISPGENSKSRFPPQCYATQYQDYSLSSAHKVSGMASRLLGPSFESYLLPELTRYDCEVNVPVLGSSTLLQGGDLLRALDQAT
Chain of Phosphatidylinositol 4,5-bisphosphate 3-kinase catalytic subunit alpha isoform (P42336 whole entry, canonical isoform): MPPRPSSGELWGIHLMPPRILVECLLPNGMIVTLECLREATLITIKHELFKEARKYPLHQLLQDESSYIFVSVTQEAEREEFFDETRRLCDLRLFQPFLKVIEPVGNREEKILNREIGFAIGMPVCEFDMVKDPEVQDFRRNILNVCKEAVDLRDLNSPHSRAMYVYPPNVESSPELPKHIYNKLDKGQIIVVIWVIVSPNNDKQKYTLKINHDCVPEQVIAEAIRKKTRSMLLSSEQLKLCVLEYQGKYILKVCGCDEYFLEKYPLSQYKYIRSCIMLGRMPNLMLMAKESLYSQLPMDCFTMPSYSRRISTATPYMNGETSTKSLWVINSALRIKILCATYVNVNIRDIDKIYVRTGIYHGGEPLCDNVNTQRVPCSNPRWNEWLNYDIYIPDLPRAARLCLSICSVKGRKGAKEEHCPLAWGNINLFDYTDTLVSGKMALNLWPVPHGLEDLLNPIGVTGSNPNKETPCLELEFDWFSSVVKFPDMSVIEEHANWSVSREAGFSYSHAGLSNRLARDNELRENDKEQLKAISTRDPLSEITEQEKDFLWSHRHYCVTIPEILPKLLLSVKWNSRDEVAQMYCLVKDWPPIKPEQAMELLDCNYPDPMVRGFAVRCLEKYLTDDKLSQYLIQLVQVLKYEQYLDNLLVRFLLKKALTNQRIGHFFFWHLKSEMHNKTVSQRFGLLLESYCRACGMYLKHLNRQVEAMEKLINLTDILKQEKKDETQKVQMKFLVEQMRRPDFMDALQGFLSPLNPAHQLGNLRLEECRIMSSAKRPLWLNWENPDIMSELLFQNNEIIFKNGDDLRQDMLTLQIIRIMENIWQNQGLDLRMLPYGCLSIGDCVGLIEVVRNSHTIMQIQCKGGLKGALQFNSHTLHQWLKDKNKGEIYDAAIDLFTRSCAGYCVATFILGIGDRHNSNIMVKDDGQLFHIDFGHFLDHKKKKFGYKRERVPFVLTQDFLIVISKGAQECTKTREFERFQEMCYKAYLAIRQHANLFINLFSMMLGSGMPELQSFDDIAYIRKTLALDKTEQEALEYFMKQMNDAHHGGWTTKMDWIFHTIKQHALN

Question: Which EC50 [1] does the source give for `COc1cccc2[nH]c(C(=O)N3C[C@H]4[C@@H]([C@H]3C(=O)N[C@@H](C[C@@H]3CCNC3=O)C(=O)c3nc5ccccc5s3)C4(C)C)cc12` here?
Answer: 1.4 µM

Question: With `C[C@@]1(C(=O)N[C@@H](CCC(=O)O)C(=O)O)CCCN1C(=O)CN` [TROFINETIDE] (H-Gly-[αMeP]-Glu-OH) as the molecule, how does the half-life [2] read?
Answer: 49 min

Question: With `CS(=O)(=O)c1cncc(C(=O)N2[C@@H](C(=O)N[C@@H](c3cc(F)c(C(F)(F)F)cc3F)C3CC3)C[C@H]3C[C@H]32)c1` [NELUTROCTIV] as the molecule, how does the half-life [3] read?
Answer: 30 min

Question: For `COc1ccc2nccc(C(=O)NCC(=O)N3CC(F)(F)C[C@H]3C#N)c2c1`, which IC50 [4] is on record?
Answer: 0.009 µM

Question: For `Cc1c(COc2cc(OCc3cccc(C#N)c3)c(CN3C[C@H](O)C[C@@H]3C(=O)O)cc2Cl)cccc1-c1ccc2c(c1)OCCO2`, which IC50 [4] is on record?
Answer: 0.0109 µM

Question: With `CC(=O)N[C@@H](C(=O)N1C[C@H](O)[C@@H](F)C1C(=O)NCc1ccc(-c2scnc2C)cc1)C(C)(C)C` (some centres not stated) as the molecule, how does the Kd [5] read?
Answer: 0.0031 µM

Question: With `CC[C@H](C)[C@H](NC(=O)[C@H](CCC(=O)O)NC(=O)[C@H](Cc1ccccc1)NC(=O)[C@H](CC(=O)O)NC(=O)[C@H](CC(=O)O)NC(=O)[C@H](CC(=O)O)NC(=O)[C@H](CCSC)NC(=O)[C@@H]1CCCN1C(=O)[C@H](Cc1ccc(O)cc1)NC(=O)C1C[C@@H](O)CN1C(=O)[C@H](C)NC(=O)[C@H](CC(C)C)NC(=O)[C@H](C)NC(=O)[C@H](CCC(=O)O)NC(=O)[C@@H](N)CC(=O)O)C(=O)N[C@@H](CCCNC(=N)N)C(=O)N[C@@H](CO)C(=O)N[C@@H](Cc1ccccc1)C(=O)O` (stereo partly drawn) (H-DEALA[ξPro(4R-OH)]YPMDDDFEIRSF-OH) as the molecule, how does the Kd [5] read?
Answer: 0.011 µM

Question: For `C[C@@H](C(=O)N[C@H](C(=O)N1C[C@H](OC(F)F)C[C@H]1C(=O)N[C@H](C#N)C[C@@H]1CCNC1=O)C(C)(C)C)N(C)C(=O)CCCCCNc1cccc2c1C(=O)N(C1CCC(=O)NC1=O)C2=O` (some centres not stated), which IC50 [6] is on record?
Answer: 0.182 µM

Question: Which IC50 [6] does the source give for `COc1ccc(/C=C/C(=O)N2C[C@@H](NC(=O)c3cccnc3)C[C@H]2C(=O)NO)cc1OC` here?
Answer: 0.009 µM

Question: What about the logP [7] of the same molecule?
Answer: 0.1

Question: With `CC(C)(C)[C@H](NC(=O)C(F)(F)F)C(=O)N1C[C@H]2[C@@H]([C@H]1C(=O)N[C@H](C#N)C[C@@H]1CCNC1=O)C2(C)C` as the molecule, how does the EC50 [1] read?
Answer: 5.6 µM

Question: Which Kd [5] does the source give for `CC(=O)N[C@@H](C(=O)N1C[C@H](O)[C@H](F)C1C(=O)NCc1ccc(-c2scnc2C)cc1)C(C)(C)C` (some centres not stated) here?
Answer: 0.00024 µM

Question: With `COc1cccc2[nH]c(C(=O)N[C@@H](CC(C)C)C(=O)N[C@H](C#N)C[C@@H]3CCNC3=O)cc12` as the molecule, how does the EC50 [1] read?
Answer: 1.2 µM

Question: For `CC[C@H](C)[C@H](NC(=O)[C@H](CCC(=O)O)NC(=O)[C@H](Cc1ccccc1)NC(=O)[C@H](CC(=O)O)NC(=O)[C@H](CC(=O)O)NC(=O)[C@H](CC(=O)O)NC(=O)[C@H](CCSC)NC(=O)[C@@H]1CCCN1C(=O)[C@H](Cc1ccc(O)cc1)NC(=O)C1[C@H](F)[C@@H](O)CN1C(=O)[C@H](C)NC(=O)[C@H](CC(C)C)NC(=O)[C@H](C)NC(=O)[C@H](CCC(=O)O)NC(=O)[C@@H](N)CC(=O)O)C(=O)N[C@@H](CCCNC(=N)N)C(=O)N[C@@H](CO)C(=O)N[C@@H](Cc1ccccc1)C(=O)O` (some centres not stated) (H-DEALA[X1]YPMDDDFEIRSF-OH), which Kd [5] is on record?
Answer: 0.052 µM

Question: With `CC[C@H](C)[C@H](NC(=O)[C@@H](C[C@@H](O)[C@H](CC(C)C)NC(=O)[C@H](Cc1c[nH]cn1)NC(=O)[C@H](Cc1ccccc1)NC(=O)[C@]1(C)CCCN1C(=O)OC(C)(C)C)C(C)C)C(=O)NCc1ccccn1` (Boc-[αMeP]FH[X3]I-{NHCH2(2-pyridyl)}) as the molecule, how does the IC50 [8] read?
Answer: 0.002 µM

Question: Which results are given for `O=C(/C=C/c1cccc(S(=O)(=O)Nc2ccccc2)c1)NO` [BELINOSTAT]?
Answer: IC50 [9]: 1.2 µM; IC50 [10]: 0.17 µM; IC50 [11]: 0.0029 µM

Question: Which IC50 [9] does the source give for `Cc1nc(NC(=O)N2CCC[C@H]2C(N)=O)sc1-c1ccnc(C(C)(C)C(F)(F)F)c1` [ALPELISIB] here?
Answer: 1.2 µM

Question: What about the IC50 [10] of the same molecule?
Answer: 0.17 µM

Question: With `O=C(O)[C@@H]1C[C@H]2C[C@H](CN3CC(F)(F)C[C@H]3C(=O)O)CC[C@H]2CN1` as the molecule, how does the IC50 [12] read?
Answer: 0.045 µM

Question: Which Kd [5] does the source give for `CC[C@H](C)[C@H](NC(=O)[C@H](CCC(=O)O)NC(=O)[C@H](Cc1ccccc1)NC(=O)[C@H](CC(=O)O)NC(=O)[C@H](CC(=O)O)NC(=O)[C@H](CC(=O)O)NC(=O)[C@H](CCSC)NC(=O)[C@@H]1CCCN1C(=O)[C@H](Cc1ccc(O)cc1)NC(=O)C1[C@@H](F)[C@@H](O)CN1C(=O)[C@H](C)NC(=O)[C@H](CC(C)C)NC(=O)[C@H](C)NC(=O)[C@H](CCC(=O)O)NC(=O)[C@@H](N)CC(=O)O)C(=O)N[C@@H](CCCNC(=N)N)C(=O)N[C@@H](CO)C(=O)N[C@@H](Cc1ccccc1)C(=O)O` (some centres not stated) (H-DEALA[X2]YPMDDDFEIRSF-OH) here?
Answer: 0.012 µM
